Reference: US5602106A, “16-membered macrolide derivatives” (priority 1993, dated 1997)
Converted amounts (≈) assume the structure as drawn. Read-outs that look alike come from different tables or passages of the source.

What was measured:
Type in all cases: cell-based
test strains = assay: Antimicrobial activity in vitro, test strains overall
Procedure: (§1) The effect of the first aspect of the present invention resides in the creation of a novel and useful 16-membered macrolide derivative. Antimicrobial activities of the compounds of the present invention were determined by measuring minimum inhibitory concentration (MIC). Minimum inhibitory concentration was determined by the agar plate dilution method in the following manner.
(§2) Test strains were subjected to seed culture using Sensitivity test broth (STB, Nissui Pharmaceutical) except that the strains belonging to the genus Streptococcus, Branhamella and Haemophilus were cultured on blood agar plate. A 5 μl portion of cell suspension of the test strains having about 10^6 CFU/ml was inoculated into Sensitivity disk agar (SDA, Nissui Pharmaceutical) supplemented with 5% horse blood and incubated at 37° C. for 20 hours. Then, MIC was measured. […] Antimicrobial activities in vitro of the compounds (1) and (2) are shown in Table 1, and those of the compounds (3) and (4) in Table 3.

M. luteus ATCC9341 = assay: MIC, agar plate dilution method; conditions: Micrococcus luteus
Procedure: as §1, §2

S. epidermidis ATCC14990 = assay: MIC, agar plate dilution method; conditions: Staphylococcus epidermidis
Procedure: as §1, §2

E. coli NIHJ JC-2 = assay: MIC, agar plate dilution method; conditions: Escherichia coli, NIHJJC2, 20 h, 37° C., SDA with 5% horse blood, read-out: Antimicrobial activity (MIC)
Procedure: as §1, §2

S. aureus M126 = assay: MIC, agar plate dilution method; conditions: Staphylococcus aureus, 37° C., 20 hours, SDA with 5% horse blood, read-out: Antimicrobial activity (MIC)
Procedure: as §1, §2

H. influenzae Type b = assay: MIC, agar plate dilution method; conditions: Haemophilus influenzae
Procedure: as §1, §2

S. pneumoniae Type 1 = assay: MIC, agar plate dilution method; conditions: Streptococcus pneumoniae
Procedure: as §1, §2

B. catarrhalis W-0500 = assay: MIC, agar plate dilution method; conditions: Moraxella catarrhalis
Procedure: as §1, §2

S. pyogenes Cook = assay: MIC, agar plate dilution method; conditions: Streptococcus pyogenes; 37° C., 20 hours, SDA with 5% horse blood; read-out: Antimicrobial activity (MIC)
Procedure: as §1, §2

K. pneumoniae PCI602 = assay: MIC, agar plate dilution method; conditions: Klebsiella pneumoniae, 37° C., SDA with 5% horse blood, read-out: Antimicrobial activity (MIC)
Procedure: as §1, §2

S. aureus MS15026 = assay: MIC, agar plate dilution method; conditions: Staphylococcus aureus, 37° C., 20 hours, SDA with 5% horse blood, read-out: Antimicrobial activity (MIC)
Procedure: as §1, §2

S. aureus MS15027 = assay: MIC, agar plate dilution method; conditions: Staphylococcus aureus
Procedure: as §1, §2

B. catarrhalis W-0506 = assay: MIC, agar plate dilution method; conditions: Moraxella catarrhalis
Procedure: as §1, §2

S. aureus MS15009/pMS99 = assay: MIC, agar plate dilution method; conditions: Staphylococcus aureus, MS15009/PMS99, 20 h, read-out: Antimicrobial activity (MIC)
Procedure: as §1, §2

S. aureus MS15009/pMS98 = assay: MIC, agar plate dilution method; conditions: Staphylococcus aureus, MS15009/PMS98, 20 h, read-out: Antimicrobial activity (MIC), 37° C., 20 hours, SDA with 5% horse blood
Procedure: as §1, §2

S. aureus 209P JC-1 = assay: MIC, agar plate dilution method; conditions: Staphylococcus aureus, 209P, 20 h, 37° C., 20 hours, SDA with 5% horse blood; read-out: Antimicrobial activity (MIC)
Procedure: as §1, §2

E. faecalis W-73 = assay: MIC, agar plate dilution method; conditions: Enterococcus faecalis, W73, 20 h, 37° C., 20 hours, SDA with 5% horse blood; read-out: Antimicrobial activity (MIC)
Procedure: as §1, §2

S. pneumoniae IP692 = assay: MIC, agar plate dilution method; conditions: Streptococcus pneumoniae, IP692, 20 h, 37° C., 20 hours, SDA with 5% horse blood; read-out: Antimicrobial activity (MIC)
Procedure: as §1, §2

S. aureus M133 = assay: MIC, agar plate dilution method; conditions: Staphylococcus aureus, M133, 20 h, 37° C., 20 hours, SDA with 5% horse blood; read-out: Antimicrobial activity (MIC)
Procedure: as §1, §2

[1] = ATCC9341, 37° C., 20 hours, SDA with 5% horse blood, read-out: Antimicrobial activity (MIC)
[2] = ATCC14990, 37° C., 20 hours, SDA with 5% horse blood, read-out: Antimicrobial activity (MIC)
[3] = 37° C., 20 hours, SDA with 5% horse blood, read-out: Antimicrobial activity (MIC)
[4] = TYPE1, 37° C., 20 hours, SDA with 5% horse blood, read-out: Antimicrobial activity (MIC)
[5] = W0500, 37° C., 20 hours, SDA with 5% horse blood, read-out: Antimicrobial activity (MIC)
[6] = MS15027, 37° C., 20 hours, SDA with 5% horse blood, read-out: Antimicrobial activity (MIC)
[7] = W0506, 37° C., 20 hours, SDA with 5% horse blood, read-out: Antimicrobial activity (MIC)

Compound	MIC (M. luteus ATCC9341; [1])	MIC (S. epidermidis ATCC14990; [2])	MIC (S. aureus M126)	MIC (H. influenzae Type b; [3])	MIC (S. pneumoniae Type 1; [4])	MIC (B. catarrhalis W-0500; [5])	MIC (S. aureus MS15026)	MIC (S. aureus MS15027; [6])	MIC (B. catarrhalis W-0506; [7])	MIC (S. aureus MS15009/pMS99)	other results
CCOC(C)O[C@H]1/C=C/C=C/C[C@@H](C)OC(=O)C[C@@H](OC(=O)CC)[C@H](OC)[C@@H](O[C@@H]2O[C@H](C)[C@@H](O[C@H]3C[C@@](C)(OC)[C@@H](OC(=O)CC)[C@H](C)O3)[C@H](N(C)C)[C@H]2O)[C@@H](CC=O)C[C@H]1C (single isomer, unassigned) [(16H)]											antimicrobial activities compared with compound (1) (test strains; vs compound (1)): inferior to those of the compound (1)
CCC(=O)O[C@H]1[C@H](C)O[C@@H](O[C@H]2[C@H](N(C)C)[C@@H](O)[C@H](O[C@H]3[C@@H](CC=O)C[C@@H](C)[C@@H](OC(C)=O)/C=C/C=C/C[C@@H](C)OC(=O)C[C@@H](O)[C@@H]3OC)O[C@@H]2C)C[C@@]1(C)OC [(6), 9-O-acetyl-3"-O-methylleucomycin A7]											antimicrobial activities compared with starting materials (1), (2) and (33) (test strains; 9-O-acylated vs free 9-hydroxyl): strong antimicrobial activities by themselves though slightly lower than those of their starting materials
CCC(=O)O[C@H]1[C@H](C)O[C@@H](O[C@H]2[C@H](N(C)C)[C@@H](O)[C@H](O[C@H]3[C@@H](CC=O)C[C@@H](C)[C@@H](O)/C=C/C=C/C[C@@H](C)OC(=O)C[C@@H](O)[C@@H]3OC)O[C@@H]2C)C[C@@]1(C)O [LM-A7, leucomycin A7, reference compound]	0.05 µg/mL (≈ 0.066 µM)	0.39 µg/mL (≈ 0.515 µM)	> 100 µg/mL	6.25 µg/mL (≈ 8.25 µM)	0.39 µg/mL (≈ 0.515 µM)	0.78 µg/mL (≈ 1.03 µM)	> 100 µg/mL	0.39 µg/mL (≈ 0.515 µM)	0.78 µg/mL (≈ 1.03 µM)	> 100 µg/mL	MIC (M. luteus ATCC9341; ATCC9341, 20 h, read-out: Antimicrobial activity (MIC), 37° C., 20 hours, SDA with 5% horse blood): 0.2 µg/mL (≈ 0.264 µM); MIC (S. epidermidis ATCC14990; ATCC14990, 20 h, read-out: Antimicrobial activity (MIC), 37° C., 20 hours, SDA with 5% horse blood): 3.13 µg/mL (≈ 4.13 µM); MIC (E. coli NIHJ JC-2): > 100 µg/mL; MIC (H. influenzae Type b; 20 h, read-out: Antimicrobial activity (MIC), 37° C., 20 hours, SDA with 5% horse blood): 50 µg/mL (≈ 66 µM); MIC (S. pneumoniae Type 1; TYPE1, 20 h, read-out: Antimicrobial activity (MIC), 37° C., 20 hours, SDA with 5% horse blood): 0.2 µg/mL (≈ 0.264 µM); MIC (B. catarrhalis W-0500; W0500, 20 h, read-out: Antimicrobial activity (MIC), 37° C., 20 hours, SDA with 5% horse blood): 12.5 µg/mL (≈ 16.5 µM); MIC (S. pyogenes Cook): 0.39 µg/mL (≈ 0.515 µM); MIC (K. pneumoniae PCI602; PCI602, 20 h): > 100 µg/mL; MIC (S. aureus MS15027; MS15027, 20 h, read-out: Antimicrobial activity (MIC), 37° C., 20 hours, SDA with 5% horse blood): 3.13 µg/mL (≈ 4.13 µM); MIC (B. catarrhalis W-0506; W0506, 20 h, read-out: Antimicrobial activity (MIC), 37° C., 20 hours, SDA with 5% horse blood): 12.5 µg/mL (≈ 16.5 µM)
CCC(=O)O[C@@H]1CC(=O)O[C@H](C)C/C=C/C=C/[C@H](O)[C@H](C)C[C@H](CC=O)[C@H](O[C@@H]2O[C@H](C)[C@@H](O[C@H]3C[C@@](C)(O)[C@@H](OC(=O)CC)[C@H](C)O3)[C@H](N(C)C)[C@H]2O)[C@H]1OC [MDM, midecamycin A1, reference compound]	0.05 µg/mL (≈ 0.0614 µM)	0.78 µg/mL (≈ 0.958 µM)	> 100 µg/mL	25 µg/mL (≈ 30.7 µM)	0.39 µg/mL (≈ 0.479 µM)	3.13 µg/mL (≈ 3.85 µM)	> 100 µg/mL	0.78 µg/mL (≈ 0.958 µM)	3.13 µg/mL (≈ 3.85 µM)	> 100 µg/mL	MIC (S. aureus MS15009/pMS98): 0.39 µg/mL (≈ 0.479 µM); MIC (S. aureus 209P JC-1): 0.39 µg/mL (≈ 0.479 µM); MIC (E. faecalis W-73): 3.13 µg/mL (≈ 3.85 µM); MIC (S. pneumoniae IP692): 0.39 µg/mL (≈ 0.479 µM); MIC (S. aureus M133): 0.78 µg/mL (≈ 0.958 µM); MIC (K. pneumoniae PCI602; PCI602, 20 hours): > 100 µg/mL
